± gives the standard deviation of the averaged measurements.
What was measured:
Settings in all cases: exposure time: 72 h
E21 [1] = patient-derived glioblastoma stem cells of mesenchymal subtype; assay: phenotypic distance (Euclidean, principal components) from DMSO controls (arbitrary units); higher = stronger morphological change
E28 [2] = patient-derived glioblastoma stem cells of classical subtype; assay: as above
E34 [3] = patient-derived glioblastoma stem cells of proneural subtype; assay: as above
FT3469 [4] = normal neural stem cell line; assay: as above
E13 [5] = patient-derived glioblastoma stem cells of classical subtype; assay: as above
E57 [6] = patient-derived glioblastoma stem cells of mesenchymal subtype; assay: as above
E21 [7] = assay: surviving fraction (nuclei count normalised to DMSO); higher = more cells surviving (less toxic)
E28 [8] = assay: as above
E34 [9] = assay: as above
FT3469 [10] = assay: as above
E13 [11] = assay: as above
E57 [12] = assay: as above
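Throughout, for phenotypic distance (Euclidean, principal components) from DMSO controls: cell Painting imaging in 384-well plates, CellProfiler features reduced to at least 20 principal components, Euclidean distance versus same-plate DMSO vehicle wells (0.1% v/v), median over six images per well.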
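Throughout, for surviving fraction (nuclei count normalised to DMSO): nuclei counted by high-content imaging of Hoechst-stained cells in laminin-coated 384-well plates, relative to 0.1% DMSO vehicle wells, with staurosporine as cell-death control.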

COc1cc2c(NC3CCN(C(C)C)CC3)nc(C3CCCCC3)nc2cc1OCCCN1CCCC1 [UNC0638]
Settings	phenotypic distance	surviving fraction
E13 [5], 4.1 nM	0.43 ± 0.14	–
E13 [5], 12.3 nM	0.523 ± 0.047	–
E13 [5], 37 nM	0.48 ± 0.18	–
E13 [5], 111.1 nM	0.587 ± 0.021	–
E13 [5], 333.3 nM	0.476 ± 0.11	–
E13 [5], 1000 nM	0.582 ± 0.19	–
E13 [5], 3000 nM	1.57 ± 1.5	–
E13 [11], 4.1 nM	–	0.973 ± 0.052
E13 [11], 12.3 nM	–	0.986 ± 0.072
E13 [11], 37 nM	–	0.987 ± 0.044
E13 [11], 111.1 nM	–	0.957 ± 0.046
E13 [11], 333.3 nM	–	1.01 ± 0.06
E13 [11], 1000 nM	–	0.938 ± 0.075
E13 [11], 3000 nM	–	0.894 ± 0.052
E21 [1], 4.1 nM	0.389 ± 0.17	–
E21 [1], 12.3 nM	0.354 ± 0.025	–
E21 [1], 37 nM	0.463 ± 0.036	–
E21 [1], 111.1 nM	1.99 ± 1.9	–
E21 [1], 333.3 nM	0.574 ± 0.19	–
E21 [1], 1000 nM	0.957 ± 0.4	–
E21 [1], 3000 nM	2.1 ± 1.1	–
E21 [7], 4.1 nM	–	0.976 ± 0.025
E21 [7], 12.3 nM	–	0.999 ± 0.021
E21 [7], 37 nM	–	1.11 ± 0.078
E21 [7], 111.1 nM	–	1.02 ± 0.056
E21 [7], 333.3 nM	–	0.976 ± 0.057
E21 [7], 1000 nM	–	0.933 ± 0.043
E21 [7], 3000 nM	–	0.808 ± 0.079
E28 [2], 4.1 nM	0.389 ± 0.055	–
E28 [2], 12.3 nM	0.447 ± 0.013	–
E28 [2], 37 nM	0.394 ± 0.089	–
E28 [2], 111.1 nM	0.488 ± 0.12	–
E28 [2], 333.3 nM	0.53 ± 0.16	–
E28 [2], 1000 nM	0.586 ± 0.16	–
E28 [2], 3000 nM	1.38 ± 0.079	–
E28 [8], 4.1 nM	–	1.03 ± 0.059
E28 [8], 12.3 nM	–	0.988 ± 0.021
E28 [8], 37 nM	–	1.01 ± 0.04
E28 [8], 111.1 nM	–	1.01 ± 0.13
E28 [8], 333.3 nM	–	0.967 ± 0.024
E28 [8], 1000 nM	–	1.03 ± 0.03
E28 [8], 3000 nM	–	0.942 ± 0.11
E34 [3], 4.1 nM	0.461 ± 0.039	–
E34 [3], 12.3 nM	0.632 ± 0.034	–
E34 [3], 37 nM	0.627 ± 0.069	–
E34 [3], 111.1 nM	0.646 ± 0.2	–
E34 [3], 333.3 nM	0.795 ± 0.19	–
E34 [3], 1000 nM	0.627 ± 0.16	–
E34 [3], 3000 nM	0.864 ± 0.011	–
E34 [9], 4.1 nM	–	0.998 ± 0.042
E34 [9], 12.3 nM	–	1.1 ± 0.037
E34 [9], 37 nM	–	1.082 ± 0.0079
E34 [9], 111.1 nM	–	1.07 ± 0.13
E34 [9], 333.3 nM	–	1.15 ± 0.087
E34 [9], 1000 nM	–	1.07 ± 0.028
E34 [9], 3000 nM	–	0.964 ± 0.085
E57 [6], 4.1 nM	0.284 ± 0.097	–
E57 [6], 12.3 nM	0.449 ± 0.097	–
E57 [6], 37 nM	0.421 ± 0.22	–
E57 [6], 111.1 nM	0.484 ± 0.01	–
E57 [6], 333.3 nM	0.486 ± 0.04	–
E57 [6], 1000 nM	0.443 ± 0.059	–
E57 [6], 3000 nM	1.09 ± 0.84	–
E57 [12], 4.1 nM	–	1.03 ± 0.0031
E57 [12], 12.3 nM	–	1.02 ± 0.035
E57 [12], 37 nM	–	1.084 ± 0.0082
E57 [12], 111.1 nM	–	1.01 ± 0.046
E57 [12], 333.3 nM	–	1.0497 ± 0.00039
E57 [12], 1000 nM	–	1.08 ± 0.036
E57 [12], 3000 nM	–	1.05 ± 0.12
FT3469 [4], 4.1 nM	0.514 ± 0.037	–
FT3469 [4], 12.3 nM	0.766 ± 0.21	–
FT3469 [4], 37 nM	0.527 ± 0.14	–
FT3469 [4], 111.1 nM	0.558 ± 0.044	–
FT3469 [4], 333.3 nM	0.523 ± 0.12	–
FT3469 [4], 1000 nM	0.714 ± 0.2	–
FT3469 [4], 3000 nM	3.19 ± 1.4	–
FT3469 [10], 4.1 nM	–	1.03 ± 0.046
FT3469 [10], 12.3 nM	–	1.02 ± 0.1
FT3469 [10], 37 nM	–	0.961 ± 0.01
FT3469 [10], 111.1 nM	–	0.975 ± 0.035
FT3469 [10], 333.3 nM	–	0.953 ± 0.046
FT3469 [10], 1000 nM	–	0.929 ± 0.08
FT3469 [10], 3000 nM	–	0.864 ± 0.018
